Results taken from ChEMBL document CHEMBL4190172 (Medchemcomm, 2016).
The source made the active and inactive calls. No cut-off for these calls is given here.

Columns and labels:
[1] = biological target: Histone deacetylase 2 (Homo sapiens) (UniProt Q92769); experiment: Inhibition of recombinant human C-terminal His/flag-tagged HDAC2 at 2 to 16 uM using Boc-Lys-(Ac)-AMC as substrate preincubated for 1 hr followed by substrate addition in presence of Lys-C by fluorescence assay
[2] = biological target: T1, Histone deacetylase 3/Nuclear receptor corepressor 2 (HDAC3/NCoR2) (Homo sapiens) (UniProt O15379+Q9Y618); experiment: Inhibition of recombinant human C-terminal His/flag-tagged HDAC3/NcoR2 at 2 to 16 uM using Boc-Lys-(Ac)-AMC as substrate in presence of Lys-C by fluorescence assay; type: protein-complex assay; details: TDE = time-dependent effect
[3] = biological target: Transcription factor p65 (Mus musculus) (UniProt Q04207); experiment: Inhibition of NF-kappaB p65 transcriptional activity in LPS/IFNgamma-stimulated mouse RAW264.7 cells at 10 uM incubated for 20 hrs followed by LPS/IFNgamma stimulation for last 4 hrs by SEAP reporter gene assay; type: cell-based
Sequence of Transcription factor p65 (Mus musculus) (Q04207 whole entry): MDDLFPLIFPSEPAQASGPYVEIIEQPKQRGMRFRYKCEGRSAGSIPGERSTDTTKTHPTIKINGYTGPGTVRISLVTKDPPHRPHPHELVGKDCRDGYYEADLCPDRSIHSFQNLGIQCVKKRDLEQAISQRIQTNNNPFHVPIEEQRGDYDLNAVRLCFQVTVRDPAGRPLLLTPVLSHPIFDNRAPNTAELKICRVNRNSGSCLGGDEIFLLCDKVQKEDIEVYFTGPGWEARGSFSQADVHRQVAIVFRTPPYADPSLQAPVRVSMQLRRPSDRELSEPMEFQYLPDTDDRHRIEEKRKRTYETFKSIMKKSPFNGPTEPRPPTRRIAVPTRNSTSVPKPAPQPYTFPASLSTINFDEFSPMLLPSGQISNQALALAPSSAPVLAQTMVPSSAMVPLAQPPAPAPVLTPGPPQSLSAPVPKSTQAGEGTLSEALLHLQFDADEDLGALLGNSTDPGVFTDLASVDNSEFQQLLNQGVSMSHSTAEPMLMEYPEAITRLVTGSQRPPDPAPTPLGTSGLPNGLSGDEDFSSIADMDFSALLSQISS

[4] = biological target: Histone deacetylase 1 (Homo sapiens) (UniProt Q13547); experiment: Inhibition of recombinant human C-terminal His/flag-tagged HDAC1 using Boc-Lys-(Ac)-AMC as substrate after 1 hr by fluorescence assay
Sequence of Histone deacetylase 1 (Homo sapiens) (Q13547 whole entry): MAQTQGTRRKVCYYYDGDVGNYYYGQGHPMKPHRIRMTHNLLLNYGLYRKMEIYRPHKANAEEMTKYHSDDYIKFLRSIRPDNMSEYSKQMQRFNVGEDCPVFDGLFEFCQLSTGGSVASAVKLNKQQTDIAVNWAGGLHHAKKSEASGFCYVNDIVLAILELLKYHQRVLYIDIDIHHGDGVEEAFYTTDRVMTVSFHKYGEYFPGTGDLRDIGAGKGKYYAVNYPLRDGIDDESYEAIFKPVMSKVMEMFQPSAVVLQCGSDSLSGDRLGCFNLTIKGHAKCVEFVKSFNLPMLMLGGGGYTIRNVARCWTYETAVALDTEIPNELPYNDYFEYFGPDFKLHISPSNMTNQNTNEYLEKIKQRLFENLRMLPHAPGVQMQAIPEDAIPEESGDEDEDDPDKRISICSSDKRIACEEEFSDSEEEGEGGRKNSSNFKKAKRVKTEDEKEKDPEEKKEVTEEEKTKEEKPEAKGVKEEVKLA

[5] = biological target: Histone deacetylase 1 (Homo sapiens) (UniProt Q13547); experiment: Inhibition of recombinant human C-terminal His/flag-tagged HDAC1 at 2 to 16 uM using Boc-Lys-(Ac)-AMC as substrate preincubated for 1 hr followed by substrate addition in presence of Lys-C by fluorescence assay
RAW264.7 [6] = experiment: Antiinflammatory activity in LPS/IFNgamma-stimulated mouse RAW264.7 cells assessed as decrease in iNOS mRNA level at 10 uM incubated for 20 hrs followed by LPS/IFNgamma stimulation for last 4 hrs by qRT-PCR analysis; type: functional, cell-based
[7] = biological target: Transcription factor p65 (Mus musculus) (UniProt Q04207); experiment: Inhibition of NF-kappaB p65 nuclear translocation in LPS/IFNgamma-stimulated mouse RAW264.7 cells at 1 uM incubated for 20 hrs followed by LPS/IFNgamma addition measured after 1 hr by Hoechst 33342 staining based immunofluorescence microscopy; type: cell-based
[8] = biological target: T1, Histone deacetylase 3/Nuclear receptor corepressor 2 (HDAC3/NCoR2) (Homo sapiens); experiment: Inhibition of recombinant human C-terminal His-tagged HDAC3/NcoR2 using Boc-Lys-(Ac)-AMC as substrate after 1 hr by fluorescence assay; type: protein-complex assay
[9] = biological target: T1, Histone deacetylase 3/Nuclear receptor corepressor 2 (HDAC3/NCoR2) (Homo sapiens); experiment: Inhibition of recombinant human C-terminal His/flag-tagged HDAC3/NcoR2 at 2 to 16 uM using Boc-Lys-(Ac)-AMC as substrate preincubated for 1 hr followed by substrate addition in presence of Lys-C by fluorescence assay; type: protein-complex assay
[10] = biological target: Histone deacetylase 2 (Homo sapiens) (UniProt Q92769); experiment: Inhibition of recombinant human C-terminal His/flag-tagged HDAC2 at 2 to 16 uM using Boc-Lys-(Ac)-AMC as substrate in presence of Lys-C by fluorescence assay; details: TDE = time-dependent effect
[11] = biological target: T2, Histone deacetylase 8 (Homo sapiens) (UniProt Q9BY41); experiment: Inhibition of recombinant human C-terminal His-tagged HDAC8 up to 50 uM using Boc-Lys-(Ac)-AMC as substrate after 1 hr by fluorescence assay
T2 sequence (whole entry): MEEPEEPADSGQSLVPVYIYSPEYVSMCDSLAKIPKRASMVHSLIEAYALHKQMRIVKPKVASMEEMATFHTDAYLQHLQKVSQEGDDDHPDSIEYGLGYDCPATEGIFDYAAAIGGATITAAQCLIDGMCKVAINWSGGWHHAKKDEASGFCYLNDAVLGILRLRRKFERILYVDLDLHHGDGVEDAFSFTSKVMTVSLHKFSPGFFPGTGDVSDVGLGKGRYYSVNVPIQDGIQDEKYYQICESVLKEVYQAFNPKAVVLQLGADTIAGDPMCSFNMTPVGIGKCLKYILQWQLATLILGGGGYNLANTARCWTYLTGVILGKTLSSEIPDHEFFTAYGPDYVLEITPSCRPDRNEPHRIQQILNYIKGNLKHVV

[12] = biological target: Histone deacetylase 1 (Homo sapiens) (UniProt Q13547); experiment: Inhibition of recombinant human C-terminal His/flag-tagged HDAC1 at 2 to 16 uM using Boc-Lys-(Ac)-AMC as substrate in presence of Lys-C by fluorescence assay; details: TDE = time-dependent effect
[13] = biological target: Histone deacetylase 2 (Homo sapiens) (UniProt Q92769); experiment: Inhibition of recombinant human C-terminal flag-tagged HDAC2 using Boc-Lys-(Ac)-AMC as substrate after 1 hr by fluorescence assay
RAW264.7 [14] = experiment: Cytotoxicity against LPS/IFNgamma-stimulated mouse RAW264.7 cells assessed as decrease in cell viability incubated for 16 hrs followed by LPS/IFNgamma stimulation for last 4 hrs by MTS assay; type: cell-based; details: raw264.7, 16 h
RAW264.7 [15] = experiment: Antiinflammatory activity in LPS/IFNgamma-stimulated mouse RAW264.7 cells assessed as decrease in IL-6 mRNA level at 10 uM incubated for 20 hrs followed by LPS/IFNgamma stimulation for last 4 hrs by qRT-PCR analysis; type: functional; set-up: scale not given: the % may be the effect or the level left
RAW264.7 [16] = experiment: Antiinflammatory activity in LPS/IFNgamma-stimulated mouse RAW264.7 cells assessed as decrease in IL-1beta mRNA level at 1 to 10 uM incubated for 20 hrs followed by LPS/IFNgamma stimulation for last 4 hrs by qRT-PCR analysis; type: functional, cell-based
RAW264.7 [17] = experiment: Antiinflammatory activity in LPS/IFNgamma-stimulated mouse RAW264.7 cells assessed as decrease in IL-12b mRNA level at 1 to 10 uM incubated for 20 hrs followed by LPS/IFNgamma stimulation for last 4 hrs by qRT-PCR analysis; type: functional, cell-based
RAW264.7 [18] = experiment: Antiinflammatory activity in LPS/IFNgamma-stimulated mouse RAW264.7 cells assessed as decrease in TNFalpha mRNA level incubated for 20 hrs followed by LPS/IFNgamma stimulation for last 4 hrs by qRT-PCR analysis; type: functional, cell-based
RAW264.7 [19] = experiment: Antiinflammatory activity in LPS/IFNgamma-stimulated mouse RAW264.7 cells assessed as decrease in IL-6 mRNA level incubated for 20 hrs followed by LPS/IFNgamma stimulation for last 4 hrs by qRT-PCR analysis; type: functional, cell-based
[20] = biological target: Transcription factor p65 (Mus musculus) (UniProt Q04207); experiment: Inhibition of NF-kappaB p65 transcriptional activity in LPS/IFNgamma-stimulated mouse RAW264.7 cells at 1 to 5 uM incubated for 20 hrs followed by LPS/IFNgamma stimulation for last 4 hrs by SEAP reporter gene assay; type: cell-based

Sequence of Histone deacetylase 2 (Homo sapiens) (Q92769 whole entry): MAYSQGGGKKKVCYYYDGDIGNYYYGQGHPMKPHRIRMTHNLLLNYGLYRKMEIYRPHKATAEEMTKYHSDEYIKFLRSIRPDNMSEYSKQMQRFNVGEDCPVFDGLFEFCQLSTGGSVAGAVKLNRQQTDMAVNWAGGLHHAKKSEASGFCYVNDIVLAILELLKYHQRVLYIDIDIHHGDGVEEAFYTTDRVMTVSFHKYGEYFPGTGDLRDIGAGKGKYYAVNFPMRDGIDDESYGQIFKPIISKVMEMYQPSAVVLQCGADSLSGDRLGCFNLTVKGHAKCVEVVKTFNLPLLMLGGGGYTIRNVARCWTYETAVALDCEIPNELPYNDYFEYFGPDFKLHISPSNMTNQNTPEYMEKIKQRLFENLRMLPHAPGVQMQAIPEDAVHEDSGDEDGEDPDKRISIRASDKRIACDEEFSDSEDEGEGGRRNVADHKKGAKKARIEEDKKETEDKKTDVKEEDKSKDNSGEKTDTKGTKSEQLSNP

Compound: CC(C)(C)OC(=O)Nc1ccccc1NC(=O)c1ccc(CNc2ccccc2/N=N/c2ccccc2)cc1
- inhibition [1]: Active
- inhibition [2]: Tde
- inhibition [3]: < 50%
- inhibition [4]: Active
- inhibition [5]: Active
- Activity (RAW264.7 [6]): inactive
- inhibition [7]: Active
- inhibition [8]: Active
- inhibition [9]: Active
- inhibition [10]: Tde
- inhibition [11]: inactive
- inhibition [12]: Tde
- inhibition [13]: Active
- Activity (RAW264.7 [14]): Non-Toxic

Compound: Nc1ccccc1NC(=O)c1ccc(CNc2ccc(/N=N/c3ccccc3)cc2)cc1
- Activity (RAW264.7 [15]): 90%
- inhibition [1]: Active
- Activity (RAW264.7 [16]): Active
- Activity (RAW264.7 [17]): Active
- inhibition [2]: Tde
- inhibition [3]: < 50%
- inhibition [4]: Active
- inhibition [5]: Active
- Activity (RAW264.7 [6]): Active
- inhibition [7]: Active
- inhibition [8]: Active
- Activity (RAW264.7 [18]): Dose-dependent effect
- inhibition [9]: Active
- inhibition [10]: Tde
- Activity (RAW264.7 [19]): Dose-dependent effect
- inhibition [12]: Tde
- inhibition [13]: Active
- Activity (RAW264.7 [14]): Non-Toxic

Compound: Nc1ccccc1NC(=O)c1ccc(CNc2cccc(/N=N/c3ccccc3)c2)cc1
- inhibition [1]: Active
- inhibition [2]: Tde
- inhibition [3]: inactive
- inhibition [4]: Active
- inhibition [5]: Active
- Activity (RAW264.7 [6]): inactive
- inhibition [20]: inactive
- inhibition [7]: inactive
- inhibition [8]: Active
- inhibition [9]: Active
- inhibition [10]: Tde
- inhibition [12]: Tde
- inhibition [13]: Active
- Activity (RAW264.7 [14]): Non-Toxic

Compound: Nc1ccccc1NC(=O)c1ccc(CNc2ccccc2/N=N/c2ccccc2)cc1
- inhibition [11]: inactive
